According to PubChem BioAssay AID1963965 (Molecular Pharmacology Branch, DTP, NCI, 2024):

System: 996289-038-R-J1-PDC spheroid viability
Assay: Anticancer human tumor 996289-038-R-J1-PDC patient-derived colon adenocarcinoma cell line growth inhibition [PI3K]
Details: spheroids with HUVEC and MSC; for IC50: curve of first compound; for viability, T/C: stronger effect = lower value; active = viability on the fitted dose curve at most 10% of control; inactive = the rest
Text: Combinatorial screen of targeted agents with the PI3K inhibitors inavolisib, alpelisib, duvelisib, and copanlisib in multi-cell type tumor spheroids
A high-throughput screen of multi-cell type tumor spheroids was designed to identify active combinations of targeted small molecules and PI3K pathway inhibitors. Complex spheroids include a stromal component modeled by human endothelial cells (HUVEC) and fibroblasts modeled by human mesenchymal stem cells (MSCs). The concentration ranges selected for each drug and investigational agent were based upon clinically achievable concentrations if the clinical Cmax of the agent was known.
Compounds. The drugs and investigational agents: inavolisib (NSC800729), alpelisib (NSC765974), duvelisib (NSC772469), copanlisib (NSC816437), ipatasertib (NSC767898), afuresertib (NSC778305), talazoparib (NSC767125), sapanisertib (NSC764658), selumetinib (NSC741078), tovorafenib (DAY101, NSC766906), vemurafenib (NSC761431), ravoxertinib (NSC781343), sotorasib (NSC818433), MRTX1133 (NSC 836407), abemaciclib (NSC 768073), palbociclib (NSC758247), venetoclax (NSC 766270), SY5609 (NSC837396), enzalutamide (NSC755605), and darolutamide (NSC825331), were obtained from the National Cancer Institute (NCI) Developmental Therapeutics Program Chemical Repository. The FDA-approved anticancer drug set is available from the NCI Developmental Therapeutics Program. […] The stock solutions were prepared in dimethyl sulfoxide (DMSO, Sigma-Aldrich, St. Louis, MO, cat. D2650) at 800-fold the tested concentration and stored at -70 degrees C prior to their use. All drugs and investigational agents were tested over a range starting from a high concentration at or near the clinical Cmax and decreasing in half-log increments. If the clinical Cmax for an agent had not been determined, the highest concentration tested was 10 microM.
Cell Culture. All cells were maintained in an incubator at 37 degrees C and 5% CO2 with 95% humidity. The PDC lines were cultured according to standard operating procedures established by the NCI PDMR (https://pdmr.cancer.gov/sops/default.htm). All PDCs were thawed and cultured in Matrigel-coated flasks prepared with a working solution of 1X Ham's F-12 nutrient mix, without supplementation (Invitrogen, Waltham, MA, cat. 11765054), 100 U/mL penicillin-streptomycin (Invitrogen, cat. 15140122), and 2.5% Matrigel (Corning Inc., Corning, NY, cat. 354248) for the first three passages. The 354836-022-R-J1-PDC, 475296-252-R-J1-PDC, and 997726-040-R-J2-PDC lines were cultured in 6A media, which includes advanced DMEM/F-12 (Thermo Fisher Scientific, cat. 12634028), 10 mM HEPES (Thermo Fisher Scientific, cat. 15630080), 1X GlutaMAX supplement (Thermo Fisher Scientific, cat. 35050061), 0.1 mg/mL primocin (InvivoGen, San Diego, CA, cat. ant-pm-2), 10% defined fetal bovine serum, heat inactivated (HyClone Laboratories Inc., Logan, UT, cat. SH30070.03HI), 50% L-WRN conditioned media (ATCC, cat. CRL-3276), 1.25 mM N-Acetyl-L-cysteine (Sigma-Aldrich, cat. A9165), 10 mM nicotinamide (Sigma-Aldrich, cat. N0636), 1X B-27 supplement (Thermo Fisher Scientific, cat. 17504044), 1X N-2 supplement (Thermo Fisher Scientific, cat. 17502048), and 10 microM Y-27632 dihydrochloride (Tocris Bioscience, Bristol, United Kingdom, cat. 1254). The 624824-186-R-J2-PDC line was cultured in 6C/Colon 1B media, which includes all 6A media components plus 50 ng/mL human EGF recombinant protein (Thermo Fisher Scientific, cat. PHG0311). […]
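Note: spheroids exposed to compounds for seven days before viability read.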
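Throughout, for viability, T/C: luminescence used as a proxy for viable cell amount; percent viability relative to DMSO vehicle control as 100%.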

Cn1cnc2c(F)c(Nc3ccc(Br)cc3Cl)c(C(=O)NOCCO)cc21 + CC(Nc1ccc2c(c1)OCCn1cc(N3C(=O)OCC3C(F)F)nc1-2)C(N)=O
339 nM: IC50 (second compound 0.01 µM)
38.9 nM: IC50 (second compound 0.316 µM)
inactive: viability, T/C (second compound 0.00316 µM, first compound 0.00949 µM) 100% | viability, T/C (second compound 0.00316 µM, first compound 0.03 µM) 84.9% | viability, T/C (second compound 0.00316 µM, first compound 0.0949 µM) 64% | viability, T/C (second compound 0.00316 µM, first compound 0.3 µM) 51% | viability, T/C (second compound 0.00316 µM, first compound 0.949 µM) 35.1% | viability, T/C (second compound 0.00316 µM, first compound 3 µM) 26.2% | viability, T/C (second compound 0.01 µM, first compound 0.00949 µM) 95.9% | viability, T/C (second compound 0.01 µM, first compound 0.03 µM) 74.2% | viability, T/C (second compound 0.01 µM, first compound 0.0949 µM) 71.6% | viability, T/C (second compound 0.01 µM, first compound 0.3 µM) 49.9% | viability, T/C (second compound 0.01 µM, first compound 0.949 µM) 36.3% | viability, T/C (second compound 0.01 µM, first compound 3 µM) 24.7% | viability, T/C (second compound 0.0316 µM, first compound 0.00949 µM) 95.3% | viability, T/C (second compound 0.0316 µM, first compound 0.03 µM) 79.7% | viability, T/C (second compound 0.0316 µM, first compound 0.0949 µM) 58.6% | viability, T/C (second compound 0.0316 µM, first compound 0.3 µM) 44.1% | viability, T/C (second compound 0.0316 µM, first compound 0.949 µM) 35.6% | viability, T/C (second compound 0.0316 µM, first compound 3 µM) 23.7% | viability, T/C (second compound 0.1 µM, first compound 0.00949 µM) 84.7% | viability, T/C (second compound 0.1 µM, first compound 0.03 µM) 69.3% | viability, T/C (second compound 0.1 µM, first compound 0.0949 µM) 47.3% | viability, T/C (second compound 0.1 µM, first compound 0.3 µM) 35% | viability, T/C (second compound 0.1 µM, first compound 0.949 µM) 26.7% | viability, T/C (second compound 0.1 µM, first compound 3 µM) 18.5% | viability, T/C (second compound 0.316 µM, first compound 0.00949 µM) 60.6% | viability, T/C (second compound 0.316 µM, first compound 0.03 µM) 53.4% | viability, T/C (second compound 0.316 µM, first compound 0.0949 µM) 41.8% | viability, T/C (second compound 0.316 µM, first compound 0.3 µM) 31.1% | viability, T/C (second compound 0.316 µM, first compound 0.949 µM) 24.9% | viability, T/C (second compound 0.316 µM, first compound 3 µM) 13.7% | viability, T/C (second compound 1 µM, first compound 0.00949 µM) 58.7% | viability, T/C (second compound 1 µM, first compound 0.03 µM) 48% | viability, T/C (second compound 1 µM, first compound 0.0949 µM) 38.4% | viability, T/C (second compound 1 µM, first compound 0.3 µM) 27.4% | viability, T/C (second compound 1 µM, first compound 0.949 µM) 18.9% | viability, T/C (second compound 1 µM, first compound 3 µM) 11.4%
91.1 nM: IC50 (second compound 0.1 µM)
285 nM: IC50 (second compound 0.00316 µM)
206 nM: IC50 (second compound 0.0316 µM)
25.2 nM: IC50 (second compound 1 µM)
